Laboratory results reported in US11000482B2, “Fabrication of a suramin-loaded nanoparticle and its application” (UNIVERSITY OF SOUTH CAROLINA, priority 2018, dated 2021).

Experiments:
MDA-MB-231 cells [1] = test: Wound healing (cell migration) assay; type: cell-based, human; conditions: MDA-MB-231 pretreated with a/b FGF, live cell imaging
Experimental: The migration of breast cancer cells was evaluated with a wound healing assay. Living videos of cell migration in a 24-well plate were acquired with a Zeiss 710 LM confocal microscope. MDA-MB-231 cells were pretreated with a/b FGF for 24 hours. After that, a wound was created by scraping the cell monolayer in a straight line with a p200 tip, and cell debris was removed by washing with PBS three times. Cells were incubated with different treatments and allowed to grow in a 37° C. chamber with 5% CO2 for 24 hours. Videos were taken using a confocal microscope with a transmittance channel continuously at 10× magnification.

MDA-MB-231 cells [2] = test: Transwell Matrigel cell invasion assay; type: cell-based, human; conditions: 40 μM SM, 16 hours; control 952
Experimental: BD cell culture inserts with a pore size of 8 μm (BD, Biosciences) were pre-coated with 100 μL of Matrigel at the concentration of 0.2 mg/mL (dilution from BD Matrigel stock 10 mg/mL with coating buffer). MDA-MB-231 cells were seeded at a density of 70,000 cells per 50 μL in the inserts in an FBS-free DMEM medium. SM or GCS-SM NPs was then added to the inserts together with 50 μL serum free medium. Each lower chamber was supplied with 1.2 mL 10% FBS containing medium supplemented with different treatments that were the same as each respective top chamber. After 16 hours of incubation, the inserts were washed with PBS and fixed with methanol. Subsequently, cells were stained with hematoxylin and washed twice with PBS. The membrane in each of the inserts was then cut and mounted onto a coverslip, and the cell number was counted with a light microscope under 10× magnification. Each well was imaged at 5 different fields, and the invasion rate was expressed by the average number of cells per microscopic field.

[3] = tested on: Human umbilical vein endothelial cells (HUVECs); test: Endothelial tube formation assay; type: cell-based; conditions: HUVEC on Geltrex
Experimental: Human umbilical vein endothelial cells (HUVECs) were cultured and maintained in a complete EGM Medium. Cells were stained with Celltracker Deep red (1 μM) for 30 minutes prior to the experiment. One hundred and fifty microliters (μL) of Geltrex® (Thermofisher) was added to each well in a 24-well plate and allowed to be polymerized for 30 minutes at 37° C. HUVEC cells were seeded in each well at a density of 2×10^5 cells/mL. SM, GCS, and GCS-SM NPs at concentrations of 10 μM and 20 μM were mixed with cells prior to seeding in the coated gel layer. The tube formation was photographed at 6 hours and 20 hours with an inverted phase contrast microscope (Canon Powershot A640) in a randomly selected field under 10× magnification, and the number of formed tubes and length of the tubes were quantified manually by Image J. Fluorescent images of cells were photographed by Zeiss 710 LM confocal microscope under 10× magnification.

MDA-MB-231 cells [4] = test: MTT cell viability assay with combination index analysis; type: cell-based, human
Experimental: The anticancer activities of the combination of DOX and SM were investigated with an MTT colorimetric assay. Cells with or without a/b FGF treatment were seeded in 96-well plates at an initial density of 20,000 cells/well. After 24 hours of incubation, the medium was replaced with 150 μL of fresh medium containing different treatments, including DOX, SM, and the combination of DOX and SM, and continued to be incubated for an additional 24 hours or 48 hours. Afterwards, the media were replaced with 100 μL fresh media containing 1 mg/mL MTT reagent and incubated for another 4 hours. The formed MTT crystals were dissolved with a stop solution and the final optical density of the medium was measured using a microplate reader (ELX808, Bio-Tech Instrument, Inc.) at λ=595 nm. A combination index (CI) analysis based on the Chou-Talalay method was performed using CalcuSyn software.

MDA-MB-231/Luc-GFP cells = test: Breast cancer lung metastasis mouse model (tail vein MDA-MB-231/Luc-GFP); type: in vivo, Female athymic mice (nu/nu)
Experimental: All animal experiments were conducted in accordance with NIH regulations and approved by the Institutional Animal Care and Use Committee of the University of South Carolina. Female athymic mice at the age of 6 to 8 weeks (nu/nu) were obtained from Jackson laboratory. […] Mice were then randomly divided into 5 groups and received the following treatments: 1) saline only; 2) SM at the dose of 3.5 mg/kg once per week; 3) free SM and DOX at the dose of 3.5 mg/kg of SM and 0.5 mg/kg of DOX once per week; 4) GCS-SM NPs at the dose of 3.5 mg/kg of SM once per week; 5) GCS-SM/DOX NPs at the dose of 3.5 mg/kg of SM and 0.5 mg/kg of DOX (molar ratio of SM to DOX is 17:1) once per week. The whole treating procedure lasted for two months and the progression of tumors was monitored every week by luminescence with an IVIS Lumia system after i.v. injection of luciferin (30 mg/mL, 50 μL). Bodyweights of the mice were recorded at the same time. At the endpoint of each mouse, organs were isolated and collected. The weights of the lungs were recorded. Fluorescent images of the lungs were also captured. The collected organs were fixed in 10% neutralized formalin solution and embedded in paraffin.

[5] = Histology (H&E) of lung, liver, kidney and TEM of heart of treated mice; type: in vivo, Female athymic mice (nu/nu)
Experimental: All animal experiments were conducted in accordance with NIH regulations and approved by the Institutional Animal Care and Use Committee of the University of South Carolina. Female athymic mice at the age of 6 to 8 weeks (nu/nu) were obtained from Jackson laboratory. MDA-MB-231/Luc-GFP cells were implanted by tail vein injection (2×10^6 cells in 100 μL PBS). Mice were then randomly divided into 5 groups and received the following treatments: 1) saline only; 2) SM at the dose of 3.5 mg/kg once per week; 3) free SM and DOX at the dose of 3.5 mg/kg of SM and 0.5 mg/kg of DOX once per week; 4) GCS-SM NPs at the dose of 3.5 mg/kg of SM once per week; 5) GCS-SM/DOX NPs at the dose of 3.5 mg/kg of SM and 0.5 mg/kg of DOX (molar ratio of SM to DOX is 17:1) once per week. The whole treating procedure lasted for two months and the progression of tumors was monitored every week by luminescence with an IVIS Lumia system after i.v. injection of luciferin (30 mg/mL, 50 μL). Bodyweights of the mice were recorded at the same time. At the endpoint of each mouse, organs were isolated and collected. The weights of the lungs were recorded. Fluorescent images of the lungs were also captured. The collected organs were fixed in 10% neutralized formalin solution and embedded in paraffin.
Tissue sections of 5 μm thickness were obtained from the formalin fixed, paraffin embedded tissue blocks with a microtome. […]

[6] = tested on: CD31 stained microvessels in tumor tissues; test: CD31 immunohistochemistry of tumor microvessels; type: in vivo, Female athymic mice (nu/nu); conditions: CD31 IHC
Experimental: Tissue sections of 5 μm thickness were obtained from the formalin fixed, paraffin embedded tissue blocks with a microtome. The standard hematoxylin and eosin staining was performed in the lung, liver and kidney tissue sections of each group. To study the tumor neovasculature, CD31 IHC was applied to identify the intra-tumor blood vessel distribution. The section was deparaffinized and treated for 30 minutes with 0.5 M Tris buffer (pH 10) at 95° C. for antigen retrieval. Sections were blocked in 5% goat serum for 20 min at room temperature. The sections were blocked with peroxidase block for 5 minutes and incubated with a primary antibody (rabbit polyclonal anti-CD31 antibody) diluted with 1% BSA (1:50) for 1 hour at room temperature, followed by the staining with peroxidase labelled polymer for 30 minutes at room temperature. The sections were then developed with the substrate-DAB for 5 minutes at room temperature and counterstained with Gill's Hematoxylin for 10 seconds. The slides were mounted with ProLong® Gold Antifade Mountant and imaged at 40× magnification with a microscope.

human prostate PC3 cells = conditions: in the presence of doxorubicin; cited from earlier work
[7] = In vitro release kinetics by dialysis in PBS; type: physicochemical; conditions: within 1 hour, free drug
Experimental: Two milliliters of GCS-SM/DOX NPs were loaded in dialysis bags (MWCO: 6-8 KDa, Spectrum laboratories) and were put into 25 mL of PBS (pH 7.4, 100 mM) at 37° C. under continuous stirring. At predesigned time points, 1 mL of media was withdrawn. Concentrations of SM or DOX were determined by UV-Vis spectrometer (Beckman, DU650) at 312 nm and 480 nm, respectively. All experiments were carried out in triplicate independently.

MDA-MB-231 cells [8] = test: Cellular uptake and subcellular distribution of DOX (FACS, confocal, cell fractionation); type: cell-based, human
Experimental: Cellular uptake of GCS-SM/DOX NPs was quantified by flow cytometry and confocal microscopy. The intracellular distribution of the DOX was measured by cell fraction assay. MDA-MB-231 cells were seeded in 12 well plates at 200,000 cells/well and treated with DOX or GCS-SM/DOX NPs at the DOX concentration of 1 μM for 3 hours. Afterwards, cells were washed 3 times with cold PBS to remove un-bound DOX or nanoparticles. Cells were collected, fixed in 4% formaldehyde, and analyzed by FACS (BD Accuri C6, BD Biosciences).
To further investigate the uptake behaviors of nanoparticles, confocal microscopy was employed. MDA-MB-231 cells were seeded in petri dishes and treated with DOX or GCS-SM/DOX NPs at a DOX concentration of 1 μg/mL. After 3 hours of co-incubation, cells were washed 3 times and images were taken with a Zeiss 710 LM confocal microscope.
GCS-SM/DOX NPs were incubated with MDA-MB-231 cells at 37° C. for 1 hour. Cells were washed 3 times, then collected by scraping. Cells were subjected to subcellular fractionation after the treatment. […] DOX uptake amount was quantified by the fluorescent intensity at the excitation at 485 nm with the emission at 585 nm. The protein concentration of cytosol and nuclear fraction were quantified by BCA assay kit.

Row | SMILES | inhibitory effect on cell migration (MDA-MB-231 cells [1]) | number of invaded MDA-MB-231 cells in each view area (MDA-MB-231 cells [2]) | tube formation ability of HUVECs [3] | cytotoxicity (MDA-MB-231 cells [4]; 200 μM SM, 24 hours, MDA-MB-231) | IC50 (MDA-MB-231 cells [4]; Homo sapiens, 48 hours of treatment, MDA-MB-231) | inhibition of cell proliferation (cytotoxicity) (MDA-MB-231 cells [4]; concentrations up to 200 μM, within 24 h) | survival rates versus control (MDA-MB-231/Luc-GFP cells; Kaplan-Meier at 12 weeks) | median survival time (MDA-MB-231/Luc-GFP cells; Kaplan-Meier at 12 weeks, control 64.5 days) | proliferation of cancer cells and metastasis (whole-body luminescence) (MDA-MB-231/Luc-GFP cells; SM 3.5 mg/kg and/or DOX 0.5 mg/kg once per week, imaging over 6 weeks) | body weight change (MDA-MB-231/Luc-GFP cells; after 8 weeks of treatment) | effect on lung weight (MDA-MB-231/Luc-GFP cells; compared to control group) | kidney histology [5] | lung histology: tumor area [5] | formation of new microvessels in tumor tissues [6] | concentration reversing FGF-induced drug resistance (human prostate PC3 cells) | release of free DOX [7] | DOX cellular uptake (MDA-MB-231 cells [8]; MDA-MB-231 pretreated with a/b FGF, confocal/FACS, 1-6 hours) | subcellular localization of DOX (MDA-MB-231 cells [8]; confocal, after 3 hours of treatment) | cytotoxicity of DOX on further increase of SM (MDA-MB-231 cells [4]; SM 20 μM or 100 μM, presence of a/b FGF) | cytotoxicity of DOX on addition of SM (MDA-MB-231 cells [4]; addition of 10 μM SM, presence of a/b FGF)
1 | Cc1ccc(C(=O)Nc2ccc(S(=O)(=O)O)c3cc(S(=O)(=O)O)cc(S(=O)(=O)O)c23)cc1NC(=O)c1cccc(NC(=O)Nc2cccc(C(=O)Nc3cc(C(=O)Nc4ccc(S(=O)(=O)O)c5cc(S(=O)(=O)O)cc(S(=O)(=O)O)c45)ccc3C)c2)c1 [SM, 8,8′-[carbonylbis[imino-3,1-phenylenecarbonylimino (4-methyl-3,1-phenylene)carbonylimino]]bisnaphthalene-1,3,5-trisulphonic acid] | only slightly inhibited cell migration | 718 | significantly inhibited | no cytotoxicity was observed | 200 µM | neither SM nor GCS-SM NP inhibited cell proliferation | moderately increased survival rates | 76.5 days | slowed down compared to the control | did not cause significant weight loss | Neither the SM nor the GCS-SM NP groups showed significant effect on lung weight | normal kidney histologic structure | mild reduction in the occupied area ratio between the tumorous tissue and normal tissue | did not decrease the formation of new blood vessels | 1 to 17 µM |  |  |  |  | 
2 | COc1cccc2c1C(=O)c1c(O)c3c(c(O)c1C2=O)C[C@@](O)(C(=O)CO)C[C@@H]3O[C@H]1C[C@H](N)[C@H](O)[C@H](C)O1 [DOX, doxorubicin] |  |  |  |  |  |  |  |  |  |  |  |  |  |  |  | about 75% | entered cells much more slowly than GCS-SM/DOX NPs | still stayed in the cytosol | did not additionally boost its cytotoxicity | greatly enhanced
